# Test system: human breast cancer cell line T-47D
# Assay: Caspase cascade activation (DEVD-R110 fluorogenic substrate) in T-47D cells
# Assay type: cell-based
# Settings: Homo sapiens, T47D, 48 h, T-47D cells, 48 h; read-out: Caspase activation Potency EC50 T-47D (48 h)
# Protocol: (§1) Human breast cancer cell line T-47D, human lung cancer cell line H1299, human hepatocellular carcinoma cell line SNU398, human colon carcinoma cell line HCT116 were grown according to media component mixtures designated by American Type Culture Collection+10% FCS (Invitrogen Corporation), in a 5% CO2-95% humidity incubator at 37° C. T-47D and H1299 cells were maintained at a cell density between 50 and 80% confluency at a cell density of 0.1 to 0.6×10^6 cells/mL. Cells were harvested at 600×g and resuspended at 0.65×10^6 cells/mL into appropriate media+10% FCS. An aliquot of 22.5 μL of cells was added to a well of a 384-well microtiter plate containing 2.5 μL of a 10% DMSO in RPMI-1640 media solution containing 0.16 to 100 μM of N-(2,5-dimethoxyphenyl)-2-methylthieno[3,2-d]pyrimidin-4-amine or other test compound (0.016 to 10 μM final). An aliquot of 22.5 μL of cells was added to a well of a 384-well microtiter plate containing 2.5 μL of a 10% DMSO in RPMI-1640 media solution without test compound as the control sample. The samples were mixed by agitation and then incubated at 37° C. for 24 h or 48 h in a 5% CO2-95% humidity incubator. After incubation, the samples were removed from the incubator and 25 μL of a solution containing 14 μM of N-(Ac-DEVD)-N′-ethoxycarbonyl-R110 (SEQ ID NO.:1) fluorogenic substrate (Cytovia, Inc.; WO99/18856), 20% sucrose (Sigma), 20 mM DTT (Sigma), 200 mM NaCl (Sigma), 40 mM Na PIPES buffer pH 7.2 (Sigma), and 500 μg/mL lysolecithin (Calbiochem) was added. The samples were mixed by agitation and incubated at room temperature. Using a fluorescent plate reader (Model SPECTRAfluor Plus, Tecan), an initial reading (T=0) was made approximately 1-2 min after addition of the substrate solution, employing excitation at 485 nm and emission at 530 nm, to determine the background fluorescence of the control sample. After the 3 h incubation, the samples were read for fluorescence as above (T=3 h).
# (§2) The Relative Fluorescence Unit values (RFU) were used to calculate the sample readings as follows: RFU(T=3h)−Control RFU(T=O)=Net RFU(T=3h)
# (§3) The activity of caspase cascade activation was determined by the ratio of the net RFU value for N-(2,5-dimethoxyphenyl)-2-methylthieno[3,2-d]pyrimidin-4-amine or other test compound to that of control samples. The EC50 (nM) was determined by a sigmoidal dose-response calculation (Prism 3.0, GraphPad Software Inc.).
row,EC50,SMILES
1,4.36 µM,"COc1cc(Nc2ncnc3scc(C)c23)cc(OC)c1 [Example 50, N-(3,5-Dimethoxyphenyl)-5-methylthieno[2,3-d]pyrimidin-4-amine]"
2,> 10 µM,"COc1cc(Nc2ncnc3ccsc23)cc([N+](=O)[O-])c1 [Example 59, N-(3-Methoxy-5-nitrophenyl)thieno[3,2-d]pyrimidin-4-amine]"
3,> 10 µM,"COc1cc(Nc2ncnc3sc(C)c(C)c23)cc(OC)c1 [Example 47, N-(3,5-Dimethoxyphenyl)-5,6-dimethylthieno[2,3-d]pyrimidin-4-amine]"
4,0.065 µM,"COc1cc(Nc2nc(C)nc3cc(Br)sc23)cc(N(C)C)c1 [Example 66, 6-Bromo-N-(3-dimethylamino-5-methoxyphenyl)-2-methylthieno[3,2-d]pyrimidin-4-amine]"
5,> 10 µM,"COc1cc(Nc2ncnc3sc(-c4ccccc4)c(C)c23)cc(OC)c1 [Example 49, N-(3,5-Dimethoxyphenyl)-5-methyl-6-phenylthieno[2,3-d]pyrimidin-4-amine]"
6,1.99 µM,"COc1cc(Nc2ncnc3sc(C)cc23)cc(OC)c1 [Example 48, N-(3,5-Dimethoxyphenyl)-6-methylthieno[2,3-d]pyrimidin-4-amine]"
7,1.52 µM,"COc1cc(Nc2ncnc3c(C)csc23)cc(OC)c1 [Example 46, N-(3,5-Dimethoxyphenyl)-7-methylthieno[3,2-d]pyrimidin-4-amine]"
8,0.087 µM,"COc1cc(Nc2ncnc3sccc23)cc(OC)c1 [Example 45, N-(3,5-Dimethoxyphenyl)thieno[2,3-d]pyrimidin-4-amine]"
9,> 10 µM,"CS(=O)(=O)c1cc(Nc2ncnc3ccsc23)cc(S(C)(=O)=O)c1 [Example 60, N-(3,5-Bis(methylsulfonyl)phenyl)thieno[3,2-d]pyrimidin-4-amine]"
10,0.723 µM,"COc1cc(Nc2ncnc3cc(I)sc23)cc(OC)c1 [Example 53, N-(3,5-Dimethoxyphenyl)-6-iodothieno[3,2-d]pyrimidin-4-amine]"
11,0.457 µM,"COc1cc(Nc2nc(C)nc3ccsc23)cc(-n2cnnn2)c1 [Example 65, N-(3-Methoxy-5-(1H-tetrazol-1-yl)phenyl)-2-methylthieno[3,2-d]pyrimidin-4-amine]"
12,1.84 µM,"COc1cc(Nc2ncnc3ccsc23)cc(C(F)(F)F)c1 [Example 56, N-(5-Methoxy-3-trifluoromethylphenyl)thieno[3,2-d]pyrimidin-4-amine]"
13,0.227 µM,"COc1cc(Nc2ncnc3cc(Br)sc23)cc(OC)c1 [Example 67, 6-Bromo-N-(3,5-dimethoxyphenyl)thieno[3,2-d]pyrimidin-4-amine]"
14,2.95 µM,"COc1cc(N)cc(Nc2ncnc3ccsc23)c1 [Example 68, N-(3-Amino-5-methoxyphenyl)thieno[3,2-d]pyrimidin-4-amine]"
15,0.486 µM,"COc1c(Br)c(N)c(Br)c(Nc2ncnc3ccsc23)c1Br [Example 73, N-(3-Amino-2,4,6-tribromo-5-methoxyphenyl)thieno[3,2-d]pyrimidin-4-amine]"

# Test system: human colon carcinoma cell line HCT116
# Assay: Caspase cascade activation in HCT116 cells
# Assay type: cell-based
# Settings: Homo sapiens, HCT-116, 48 h, read-out: Caspase activation Potency EC50 HCT116 (48 h)
# Protocol: as §1, §2, §3
row,EC50,SMILES
1,≥ 10 µM,"COc1cc(Nc2ncnc3scc(C)c23)cc(OC)c1 [Example 50, N-(3,5-Dimethoxyphenyl)-5-methylthieno[2,3-d]pyrimidin-4-amine]"
2,> 10 µM,"COc1cc(Nc2ncnc3ccsc23)cc([N+](=O)[O-])c1 [Example 59, N-(3-Methoxy-5-nitrophenyl)thieno[3,2-d]pyrimidin-4-amine]"
3,> 10 µM,"COc1cc(Nc2ncnc3sc(C)c(C)c23)cc(OC)c1 [Example 47, N-(3,5-Dimethoxyphenyl)-5,6-dimethylthieno[2,3-d]pyrimidin-4-amine]"
4,0.498 µM,"COc1cc(Nc2nc(C)nc3cc(Br)sc23)cc(N(C)C)c1 [Example 66, 6-Bromo-N-(3-dimethylamino-5-methoxyphenyl)-2-methylthieno[3,2-d]pyrimidin-4-amine]"
5,> 10 µM,"COc1cc(Nc2ncnc3sc(-c4ccccc4)c(C)c23)cc(OC)c1 [Example 49, N-(3,5-Dimethoxyphenyl)-5-methyl-6-phenylthieno[2,3-d]pyrimidin-4-amine]"
6,> 10 µM,"COc1cc(Nc2ncnc3sc(C)cc23)cc(OC)c1 [Example 48, N-(3,5-Dimethoxyphenyl)-6-methylthieno[2,3-d]pyrimidin-4-amine]"
7,> 10 µM,"COc1cc(Nc2ncnc3c(C)csc23)cc(OC)c1 [Example 46, N-(3,5-Dimethoxyphenyl)-7-methylthieno[3,2-d]pyrimidin-4-amine]"
8,> 10 µM,"COc1cc(Nc2ncnc3sccc23)cc(OC)c1 [Example 45, N-(3,5-Dimethoxyphenyl)thieno[2,3-d]pyrimidin-4-amine]"
9,> 10 µM,"CS(=O)(=O)c1cc(Nc2ncnc3ccsc23)cc(S(C)(=O)=O)c1 [Example 60, N-(3,5-Bis(methylsulfonyl)phenyl)thieno[3,2-d]pyrimidin-4-amine]"
10,2.45 µM,"COc1cc(Nc2ncnc3cc(I)sc23)cc(OC)c1 [Example 53, N-(3,5-Dimethoxyphenyl)-6-iodothieno[3,2-d]pyrimidin-4-amine]"
11,0.62 µM,"COc1cc(Nc2nc(C)nc3ccsc23)cc(-n2cnnn2)c1 [Example 65, N-(3-Methoxy-5-(1H-tetrazol-1-yl)phenyl)-2-methylthieno[3,2-d]pyrimidin-4-amine]"
12,2.61 µM,"COc1cc(Nc2ncnc3ccsc23)cc(C(F)(F)F)c1 [Example 56, N-(5-Methoxy-3-trifluoromethylphenyl)thieno[3,2-d]pyrimidin-4-amine]"
13,> 10 µM,"COc1cc(Nc2ncnc3cc(Br)sc23)cc(OC)c1 [Example 67, 6-Bromo-N-(3,5-dimethoxyphenyl)thieno[3,2-d]pyrimidin-4-amine]"
14,> 10 µM,"COc1cc(N)cc(Nc2ncnc3ccsc23)c1 [Example 68, N-(3-Amino-5-methoxyphenyl)thieno[3,2-d]pyrimidin-4-amine]"
15,1.67 µM,"COc1c(Br)c(N)c(Br)c(Nc2ncnc3ccsc23)c1Br [Example 73, N-(3-Amino-2,4,6-tribromo-5-methoxyphenyl)thieno[3,2-d]pyrimidin-4-amine]"

# Test system: human hepatocellular carcinoma cell line SNU398
# Assay: Caspase cascade activation in SNU398 cells
# Assay type: cell-based
# Settings: Homo sapiens, SNU-398, 48 h, read-out: Caspase activation Potency EC50 SNU398 (48 h)
# Protocol: as §1, §2, §3
row,EC50,SMILES
1,≥ 10 µM,"COc1cc(Nc2ncnc3scc(C)c23)cc(OC)c1 [Example 50, N-(3,5-Dimethoxyphenyl)-5-methylthieno[2,3-d]pyrimidin-4-amine]"
2,3.25 µM,"COc1cc(Nc2ncnc3ccsc23)cc([N+](=O)[O-])c1 [Example 59, N-(3-Methoxy-5-nitrophenyl)thieno[3,2-d]pyrimidin-4-amine]"
3,> 10 µM,"COc1cc(Nc2ncnc3sc(C)c(C)c23)cc(OC)c1 [Example 47, N-(3,5-Dimethoxyphenyl)-5,6-dimethylthieno[2,3-d]pyrimidin-4-amine]"
4,0.297 µM,"COc1cc(Nc2nc(C)nc3cc(Br)sc23)cc(N(C)C)c1 [Example 66, 6-Bromo-N-(3-dimethylamino-5-methoxyphenyl)-2-methylthieno[3,2-d]pyrimidin-4-amine]"
5,> 10 µM,"COc1cc(Nc2ncnc3sc(-c4ccccc4)c(C)c23)cc(OC)c1 [Example 49, N-(3,5-Dimethoxyphenyl)-5-methyl-6-phenylthieno[2,3-d]pyrimidin-4-amine]"
6,> 10 µM,"COc1cc(Nc2ncnc3sc(C)cc23)cc(OC)c1 [Example 48, N-(3,5-Dimethoxyphenyl)-6-methylthieno[2,3-d]pyrimidin-4-amine]"
7,> 10 µM,"COc1cc(Nc2ncnc3c(C)csc23)cc(OC)c1 [Example 46, N-(3,5-Dimethoxyphenyl)-7-methylthieno[3,2-d]pyrimidin-4-amine]"
8,> 10 µM,"COc1cc(Nc2ncnc3sccc23)cc(OC)c1 [Example 45, N-(3,5-Dimethoxyphenyl)thieno[2,3-d]pyrimidin-4-amine]"
9,> 10 µM,"CS(=O)(=O)c1cc(Nc2ncnc3ccsc23)cc(S(C)(=O)=O)c1 [Example 60, N-(3,5-Bis(methylsulfonyl)phenyl)thieno[3,2-d]pyrimidin-4-amine]"
10,0.868 µM,"COc1cc(Nc2ncnc3cc(I)sc23)cc(OC)c1 [Example 53, N-(3,5-Dimethoxyphenyl)-6-iodothieno[3,2-d]pyrimidin-4-amine]"
11,0.354 µM,"COc1cc(Nc2nc(C)nc3ccsc23)cc(-n2cnnn2)c1 [Example 65, N-(3-Methoxy-5-(1H-tetrazol-1-yl)phenyl)-2-methylthieno[3,2-d]pyrimidin-4-amine]"
12,1.03 µM,"COc1cc(Nc2ncnc3ccsc23)cc(C(F)(F)F)c1 [Example 56, N-(5-Methoxy-3-trifluoromethylphenyl)thieno[3,2-d]pyrimidin-4-amine]"
13,4.95 µM,"COc1cc(Nc2ncnc3cc(Br)sc23)cc(OC)c1 [Example 67, 6-Bromo-N-(3,5-dimethoxyphenyl)thieno[3,2-d]pyrimidin-4-amine]"
14,5.08 µM,"COc1cc(N)cc(Nc2ncnc3ccsc23)c1 [Example 68, N-(3-Amino-5-methoxyphenyl)thieno[3,2-d]pyrimidin-4-amine]"
15,0.605 µM,"COc1c(Br)c(N)c(Br)c(Nc2ncnc3ccsc23)c1Br [Example 73, N-(3-Amino-2,4,6-tribromo-5-methoxyphenyl)thieno[3,2-d]pyrimidin-4-amine]"

# — patent US20070099877A1, “N-aryl-thienopyrimidin-4-amines and analogs as activators of caspases and inducers of apoptosis and the use thereof” (Cytovia, Inc., priority 2005, published 2007)
